#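 In this assay, cells in 96-well plates receive the compound at five concentrations for 48 hours. Endpoints are linearly interpolated between the surrounding concentrations. GI50 is the concentration that inhibits growth by half.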 The source made the active and inactive calls. No stated cut-off is given here; in the data, active = GI50 up to about 1.1 µM and inactive = higher.
# Experiments:
# Test in all cases: NCI tumour cell line growth inhibition, 48 h
# [1] = system: A498
# [2] = system: COLO 205
# [3] = system: HOP-92
# [4] = system: HT-29
# [5] = system: IGROV-1
# [6] = system: KM12
# [7] = system: M14
# [8] = system: MCF7
# [9] = system: MOLT-4
# [10] = system: NCI-H226
# [11] = system: NCI/ADR-RES
# [12] = system: PC-3
# [13] = system: SF-268
# [14] = system: SF-295
# [15] = system: SK-MEL-28
# [16] = system: SW-620
# [17] = system: UACC-62
# [18] = system: UO-31
# [19] = system: HCT-116
# [20] = system: RXF 393
Compound,GI50 [1],GI50 [2],GI50 [3],GI50 [4],GI50 [5],GI50 [6],GI50 [7],GI50 [8],GI50 [9],GI50 [10],GI50 [11],GI50 [12],GI50 [13],GI50 [14],GI50 [15],GI50 [16],GI50 [17],GI50 [18],GI50 [19],GI50 [20]
N#CCCCCC12C3C(=O)N(c4ccccc4)C(=O)C3ON1O[C@@H]1C(=O)N(c3ccccc3)C(=O)[C@@H]12 (some centres not stated),> 100 µM (inactive),> 100 µM (inactive),> 100 µM (inactive),> 100 µM (inactive),> 100 µM (inactive),> 100 µM (inactive),> 100 µM (inactive),> 100 µM (inactive),> 100 µM (inactive),> 100 µM (inactive),> 100 µM (inactive),> 100 µM (inactive),> 100 µM (inactive),> 100 µM (inactive),> 100 µM (inactive),> 100 µM (inactive),> 100 µM (inactive),> 100 µM (inactive),–,–
C=C1C(=O)O[C@H]2[C@H]1CC(=O)/C(C)=C/CC[C@@]1(C)O[C@@H]21,1.64 µM (inactive),0.255 µM (active),0.74 µM (active),1.13 µM (inactive),2.04 µM (inactive),2.49 µM (inactive),0.37 µM (active),0.392 µM (active),–,4.26 µM (inactive),1.4 µM (inactive),2.19 µM (inactive),3.45 µM (inactive),16.2 µM (inactive),0.603 µM (active),0.324 µM (active),1.37 µM (inactive),0.879 µM (active),0.719 µM (active),0.44 µM (active)
COc1c2c(c3c(c1OC)c(=O)c1ccccc1n3C)OCO2,> 100 µM (inactive),> 100 µM (inactive),> 100 µM (inactive),> 100 µM (inactive),> 100 µM (inactive),> 100 µM (inactive),> 100 µM (inactive),> 100 µM (inactive),> 100 µM (inactive),> 100 µM (inactive),> 100 µM (inactive),> 100 µM (inactive),> 100 µM (inactive),> 100 µM (inactive),> 100 µM (inactive),> 100 µM (inactive),> 100 µM (inactive),> 100 µM (inactive),> 100 µM (inactive),–
O=C1C=C(Nc2ccc(S(=O)(=O)Nc3nccs3)cc2)c2ccccc2C1=O,71 µM (inactive),–,34.5 µM (inactive),19.1 µM (inactive),12.5 µM (inactive),17.8 µM (inactive),21.9 µM (inactive),18.9 µM (inactive),11.8 µM (inactive),21.9 µM (inactive),27.5 µM (inactive),71.4 µM (inactive),27.1 µM (inactive),18 µM (inactive),16.5 µM (inactive),19.4 µM (inactive),24.5 µM (inactive),56.9 µM (inactive),34.5 µM (inactive),> 100 µM (inactive)
CCC(=O)NC(NNS(=O)(=O)c1ccc(C)cc1)(C(F)(F)F)C(F)(F)F,> 100 µM (inactive),> 100 µM (inactive),37.6 µM (inactive),–,49.4 µM (inactive),54.1 µM (inactive),37.6 µM (inactive),76 µM (inactive),80 µM (inactive),> 100 µM (inactive),27.3 µM (inactive),55.1 µM (inactive),55 µM (inactive),> 100 µM (inactive),20.3 µM (inactive),33.7 µM (inactive),38.9 µM (inactive),34.2 µM (inactive),64.3 µM (inactive),23.2 µM (inactive)
CC(=O)OC(/C=C/c1ccccc1)=C(OC(C)C)/C1=C(\c2ccccc2)SCCCSC1=O,> 100 µM (inactive),> 100 µM (inactive),> 100 µM (inactive),> 100 µM (inactive),–,> 100 µM (inactive),> 100 µM (inactive),36 µM (inactive),> 100 µM (inactive),> 100 µM (inactive),> 100 µM (inactive),> 100 µM (inactive),> 100 µM (inactive),56.8 µM (inactive),> 100 µM (inactive),> 100 µM (inactive),63 µM (inactive),> 100 µM (inactive),> 100 µM (inactive),74.3 µM (inactive)
COC(=O)C1=C(O)c2ccc(Cl)cc2S(=O)(=O)N1C,> 100 µM (inactive),> 100 µM (inactive),59 µM (inactive),> 100 µM (inactive),78 µM (inactive),> 100 µM (inactive),51.1 µM (inactive),> 100 µM (inactive),> 100 µM (inactive),–,19.1 µM (inactive),83.4 µM (inactive),64.7 µM (inactive),60.5 µM (inactive),> 100 µM (inactive),80.2 µM (inactive),> 100 µM (inactive),> 10 µM (inactive),> 100 µM (inactive),> 100 µM (inactive)
